Experimental data published in US6376670B1, “Quinoline-indole antimicrobial agents, uses and compositions related thereto” (Sepracor Inc., priority 1997, dated 2002).

How the values were obtained:
[1] = test system: methicillin-resistant Staphylococcus aureus (MRSA); assay: Determination of MIC values (BHI broth, 96 well microtiter plate); format: cell-based; conditions: Staphylococcus aureus, MRSA, 16 h, BHI broth, 37° C., overnight (about 16 hours); read-out: MIC MRSA
Experimental: (§1) Stock solutions of compounds are prepared with a concentration of 10 mg/mL. These solutions are then diluted 1:4 to give a concentration of 2.5 mg/mL. The compounds are then serially diluted 1:2 for 6 iterations. The concentrations made for each compound are 2.5, 1.25, 0.625, 0.3125, 0.156, 0.078, and 0.039 mg/mL. A control sample (no compound) is run along with each compound tested. All dilutions are made in DMSO.
(§2) All wells of a 96 well microtiter plate are filled with 100 μL of BHI (Brain-Heart Infusion) broth. Columns on the plate are labeled 1-12, and rows are labeled A-H. Each column of wells is used to test one series of diluted compounds. Into each well of 100 μL of BHI broth, 1 μL of diluted compound is placed for a 1:100 dilution. This makes the final concentration of each drug series 25, 12.5, 6.25, 3.125, 1.56, 0.78, 0.39, and 0 μg/mL.
(§3) Test Organism: A sterile 15 mL screw cap tube is filled wth 3 mL of BHI broth. Next, 2-3 colonies of test organism are inoculated into the tube. The tube is then incubated at 37° C. in a CO2 (approx. 7%) atmosphere jar. The organisms are allowed to grow to the density of a 0.5 McFarland standard (10^8 cells/mL). The organism is then inoculated into each well of the microtiter plate containing the diluted compounds to be tested for MIC. The inoculum is 1 μL in volume and represents 10^5 to 10^6 cells/mL.
(§4) After inoculation the plates are covered and incubated at 37° C. and approx. 7-10% CO2 atmosphere overnight (about 16 hours). The plates are then observed for growth, the well with the lowest concentration of drug and no observable growth represents the well determining the MIC.

[2] = test system: vancomycin-resistant Enterococcus spp. (VRE); assay: as above; format: cell-based; conditions: Enterococcus, VRE, 16 h, BHI broth, 37° C., overnight (about 16 hours); read-out: MIC VREF
Experimental: as §1, §2, §3, §4

| Structure (SMILES) | MIC [1] [µg/mL] | MIC [2] [µg/mL] |
| --- | --- | --- |
| NCCCN1CCN(CCCNC(=O)c2cc(-c3c[nH]c4ccc(Br)cc34)nc3ccc(I)cc23)CC1 [Example 70] | < 7 | < 25 |
| NCC(=O)NCc1ccc(CNC(=O)c2cc(-c3c[nH]c4ccc(Br)cc34)nc3ccccc23)cc1 [Example 71] | < 25 | > 25 |
| NCCC(=O)NCc1ccc(CNC(=O)c2cc(-c3c[nH]c4ccc(Br)cc34)nc3ccccc23)cc1 [Example 72] | > 25 | > 25 |
| N[C@H](Cc1c[nH]cn1)C(=O)NCc1ccc(CNC(=O)c2cc(-c3c[nH]c4ccc(Br)cc34)nc3ccccc23)cc1 [Example 73] | < 25 | < 25 |
| NCc1ccc(CNC(=O)c2cc(-c3c[nH]c4ccc(Br)cc34)nc3ccc(C#CCN4CCOCC4)cc23)cc1 [Example 74] | < 7 | < 25 |
| NCc1ccc(CNC(=O)c2cc(-c3c[nH]c4ccc(Br)cc34)nc3ccc(C#CCN4CCC(Cc5ccccc5)CC4)cc23)cc1 [Example 75] | > 25 | > 25 |
| O=C(O)c1cc(-c2c[nH]c3cccc(F)c23)nc2ccccc12 [Example 77] | > 25 | > 25 |
| O=C(O)c1cc(-c2c[nH]c3cc(F)ccc23)nc2ccccc12 [Example 78] | > 25 | > 25 |
| NCc1ccc(CNC(=O)c2cc(-c3c[nH]c4cccc(F)c34)nc3ccccc23)cc1 [Example 79] | > 25 | > 25 |
| NCc1ccc(CNC(=O)c2cc(-c3c[nH]c4cc(F)ccc34)nc3ccccc23)cc1 [Example 80] | < 25 | < 25 |
| NCc1ccc(CNC(=O)c2cc(-c3ccccc3)nc3ccccc23)cc1 [Example 81] | > 25 | > 25 |
| NCc1ccc(CNC(=O)c2cc(-c3ccoc3)nc3ccccc23)cc1 [Example 82] | > 25 | > 25 |
| NCc1ccc(CNC(=O)c2cc(-c3ccsc3)nc3ccc(Br)cc23)cc1 [Example 83] | > 25 | > 25 |
| NCc1ccc(CNC(=O)c2cc(-c3cccnc3)nc3ccc(Br)cc23)cc1 [Example 84] | < 7 | < 25 |
| O=C(NCc1ccc(CNC(=O)c2cc(-c3c[nH]c4ccc(Br)cc34)nc3ccccc23)cc1)Nc1ccc(C(F)(F)F)cc1 [Example 85] | < 7 | < 25 |
| Cn1ccc(-c2cc(C(=O)NCc3ccc(CN)cc3)c3ccccc3n2)c1 [Example 86] | > 25 | > 25 |
| NCc1ccc(CNC(=O)c2cc(-c3ccc4ccccc4c3)nc3ccccc23)cc1 [Example 87] | < 25 | < 25 |
| N=C(N)NCCC[C@H](NC(=O)c1cc(-c2c[nH]c3ccc(Br)cc23)nc2ccccc12)C(=O)O [Example 88] | > 25 | > 25 |
| O=C(NCc1ccc(CNC(=O)c2cc(-c3c[nH]c4ccc(Br)cc34)nc3ccccc23)cc1)Nc1cc(C(F)(F)F)cc(C(F)(F)F)c1 [Example 90] | < 25 | < 7 |
| NCc1ccc(CNC(=O)C2CC(c3c[nH]c4ccccc34)Nc3ccccc32)cc1 (centres unmarked) [Example 91] | > 25 | > 25 |

| Structure (SMILES) | MIC [1] [µg/mL] | MIC [2] [µg/mL] |
| --- | --- | --- |
| CN(C)Cc1ccc(CNC(=O)c2cc(-c3c[nH]c4ccc(Br)cc34)nc3ccccc23)cc1 [Example 92] | < 25 | < 25 |
| NCc1ccc(CNC(=O)c2cc(-c3ccccn3)nc3ccccc23)cc1 [Example 93] | > 25 | > 25 |
| NCc1ccc(CNC(=O)c2cc(-c3ccncc3)nc3ccc(Br)cc23)cc1 [Example 94] | > 25 | > 25 |
| Cc1ccc2nc(-c3ccncc3)cc(C(=O)NCc3ccc(CN)cc3)c2c1 [Example 95] | > 25 | > 25 |
| COc1cc2nc(-c3c[nH]c4ccc(Br)cc34)cc(C(=O)NCc3ccc(CN)cc3)c2cc1OC [Example 98] | < 25 | < 25 |
| NCc1ccc(CNC(=O)c2cc(-c3c[nH]c4ccc(Br)cc34)nc3ccc(CO)cc23)cc1 [Example 100] | > 25 | > 25 |
| NCc1ccc(CNC(=O)c2cc(-c3c[nH]c4ccc(Br)cc34)nc3ccc(C#Cc4ccccc4)cc23)cc1 [Example 101] | < 7 | < 7 |
| COC(=O)c1ccc2nc(-c3c[nH]c4ccc(Br)cc34)cc(C(=O)NCc3ccc(CN)cc3)c2c1 [Example 105] | > 25 | < 25 |
| NC1CCC(NC(=O)c2cc(-c3c[nH]c4ccc(Br)cc34)nc3ccccc23)CC1 (centres unmarked) [Example 106] | < 25 | < 25 |
| NCc1ccc(CNC(=O)c2cc(-c3c[nH]c4ccc(Br)cc34)nc3ccc(Br)cc23)cc1 [Example 120] | < 7 | < 7 |
| NCc1ccc(CNC(=O)c2cc(-c3c[nH]c4ccc(Br)cc34)nc3ccc(Cl)cc23)cc1 [Example 121] | < 7 | < 7 |
| NCc1cccc(CNC(=O)c2cc(-c3c[nH]c4ccc(Br)cc34)nc3ccc(Br)cc23)c1 [Example 125] | < 7 | < 7 |
| O=C(c1cc(-c2c[nH]c3ccc(Br)cc23)nc2ccc(Br)cc12)N1CCCNCC1 [Example 126] | < 7 | < 7 |
| Cc1cc2nc(-c3c[nH]c4ccc(Br)cc34)cc(C(=O)NCc3cccc(CN)c3)c2cc1C [Example 129] | < 7 | < 7 |
| Cc1cc2nc(-c3c[nH]c4ccc(Br)cc34)cc(C(=O)N3CCCNCC3)c2cc1C [Example 130] | < 7 | < 7 |
| O=C(c1cc(-c2c[nH]c3ccc(Br)cc23)nc2ccc(Cl)cc12)N1CCCNCC1 [Example 135] | < 7 | < 7 |
| NC(=O)c1cc(-c2c[nH]c3ccc(Br)cc23)nc2ccc(C#CCN3CCCCC3)cc12 [Example 137] | < 25 | < 25 |
| NCc1ccc(CNC(=O)c2cc(-c3csc4ccc(Cl)cc34)nc3ccc(I)cc23)cc1 [Example 140] | > 25 | < 25 |
| O=C(O)c1cc(-c2c[nH]c3ccc(Br)cc23)nc2c(Cl)cccc12 [Example 141] | > 25 | > 25 |
| NC(=O)C(Cc1ccc2ccccc2c1)NC(=O)c1cc(-c2c[nH]c3ccccc23)nc2ccccc12 (centres unmarked) [Example 145] | < 7 | < 25 |

| Structure (SMILES) | MIC [1] [µg/mL] | MIC [2] [µg/mL] |
| --- | --- | --- |
| Cc1ccc2[nH]cc(-c3cc(C(=O)NC(Cc4ccc5ccccc5c4)C(N)=O)c4ccccc4n3)c2c1 (centres unmarked) [Example 146] | < 7 | < 25 |
| NC(=O)C(Cc1ccc2ccccc2c1)NC(=O)c1cc(-c2c[nH]c3ccc(Cl)cc23)nc2ccccc12 (centres unmarked) [Example 147] | < 7 | < 7 |
| NC(=O)C(Cc1ccc([N+](=O)[O-])cc1)NC(=O)c1cc(-c2c[nH]c3ccc(Cl)cc23)nc2ccccc12 (centres unmarked) [Example 148] | < 7 | < 25 |
| NC(=O)C(Cc1ccc([N+](=O)[O-])cc1)NC(=O)c1cc(-c2c[nH]c3ccc(Br)cc23)nc2ccccc12 (centres unmarked) [Example 149] | < 7 | > 25 |
| NCc1ccc(CNC(=O)c2cc(-c3c[nH]c4ccc(Br)cc34)nc3cc4c(cc23)OCCO4)cc1 [Example 150] | > 25 | > 25 |
| Cc1c(-c2c[nH]c3ccc(Br)cc23)nc2ccc(I)cc2c1C(=O)NCc1ccc(CN)cc1 [Example 152] | < 7 | < 25 |
| O=C(O)c1cc(-c2c[nH]c3ccccc23)nc2ccc(I)cc12 [Example 155] | > 25 | > 25 |
| O=C(O)c1cc(-c2c[nH]c3ccccc23)nc2c(Cl)cccc12 [Example 156] | > 25 | > 25 |
| CC(C)(C)OC(=O)n1cc(-c2cc(C(=O)O)c3cccnc3n2)c2cc(Br)ccc21 [Example 157] | > 25 | > 25 |
| NCc1ccc(CNC(=O)c2cc(-c3c[nH]c4ccccc34)nc3c(Cl)cccc23)cc1 [Example 160] | < 25 | < 25 |
| NCc1ccc(CNC(=O)c2cc(-c3c[nH]c4ccc(Br)cc34)nc3ncccc23)cc1 [Example 162] | > 25 | > 25 |
| NCc1cccc(CNC(=O)c2cc(-c3ccsc3)nc3ccc(Br)cc23)c1 [Example 166] | > 25 | > 25 |
| Cn1cc(-c2ccc3cc(Cl)ccc3n2)c2cc(Br)ccc21 [Example 167] | > 25 | > 25 |
| Cn1cc(-c2ccc3ccccc3n2)c2ccccc21 [Example 176] | > 25 | > 25 |
| Cn1cc(-c2ccc3ccccc3n2)c2cc(Cl)ccc21 [Example 177] | > 25 | > 25 |
| Cn1cc(-c2ccc3ccccc3n2)c2cc(Br)ccc21 [Example 178] | > 25 | > 25 |
| Cn1cc(-c2ccc3cc(Cl)ccc3n2)c2ccccc21 [Example 179] | > 25 | > 25 |
| Cn1cc(-c2ccc3cc(Cl)ccc3n2)c2cc(Cl)ccc21 [Example 180] | > 25 | > 25 |
